Source: PMC12044458 (ACS Omega, 2025)

How the values were obtained:
[1] = system: Poly(I:C) Na^+ (RNA, polymer, hypoxanthine (inosine) in place of every G of strand 1 (polyinosinic acid)) G/C; assay: UV melting; conditions: PBS, 0 mM Mg2+, derived from two Tm (64 and 65), compound concentration not in material, per base
[2] = system: Poly(I:C) HMW (RNA, polymer, hypoxanthine (inosine) in place of every G of strand 1 (polyinosinic acid)) G/C; assay: UV melting; conditions: PBS, 0 mM Mg2+, derived from two Tm (67 and 67), compound concentration not in material, per base

Compound: CN(C)[C@@H]1C(=O)C(C(N)=O)=C(O)[C@@]2(O)C(=O)C3=C(O)c4c(O)cccc4[C@@](C)(O)[C@H]3C[C@@H]12
- melting temperature shift (ΔTm) [1]: -1 °C
- melting temperature shift (ΔTm) [2]: 0 °C
